Like-named read-outs stand apart in the source and are kept apart here. Positions of bridges follow the written chain, without caps; N, C: chain ends. Non-standard residues stand in square brackets, D forms with d. Residues, ends and D or L forms follow the SMILES beside them. Trp(1-Me) = Cn1cc(C[C@H](N)C(=O)O)c2ccccc21; 1Nal = N[C@@H](Cc1cccc2ccccc12)C(=O)O Where only a bound is given, the exact number is not on record here.

What all share (assay): cell-based
Test [1] concerns the target hNav1.7 (Homo sapiens, UniProt Q15858). The settings on record: Nav1.7 Use IC50.
Test [2] addresses hNav1.5 (Homo sapiens, UniProt Q14524).
The target of test [3] is hNav1.3 (Homo sapiens, UniProt Q9NY46). Format: cell-based. To be noted: Nav1.3 Use IC50.
Sequence of hNav1.3 (Q9NY46 whole entry, looked up): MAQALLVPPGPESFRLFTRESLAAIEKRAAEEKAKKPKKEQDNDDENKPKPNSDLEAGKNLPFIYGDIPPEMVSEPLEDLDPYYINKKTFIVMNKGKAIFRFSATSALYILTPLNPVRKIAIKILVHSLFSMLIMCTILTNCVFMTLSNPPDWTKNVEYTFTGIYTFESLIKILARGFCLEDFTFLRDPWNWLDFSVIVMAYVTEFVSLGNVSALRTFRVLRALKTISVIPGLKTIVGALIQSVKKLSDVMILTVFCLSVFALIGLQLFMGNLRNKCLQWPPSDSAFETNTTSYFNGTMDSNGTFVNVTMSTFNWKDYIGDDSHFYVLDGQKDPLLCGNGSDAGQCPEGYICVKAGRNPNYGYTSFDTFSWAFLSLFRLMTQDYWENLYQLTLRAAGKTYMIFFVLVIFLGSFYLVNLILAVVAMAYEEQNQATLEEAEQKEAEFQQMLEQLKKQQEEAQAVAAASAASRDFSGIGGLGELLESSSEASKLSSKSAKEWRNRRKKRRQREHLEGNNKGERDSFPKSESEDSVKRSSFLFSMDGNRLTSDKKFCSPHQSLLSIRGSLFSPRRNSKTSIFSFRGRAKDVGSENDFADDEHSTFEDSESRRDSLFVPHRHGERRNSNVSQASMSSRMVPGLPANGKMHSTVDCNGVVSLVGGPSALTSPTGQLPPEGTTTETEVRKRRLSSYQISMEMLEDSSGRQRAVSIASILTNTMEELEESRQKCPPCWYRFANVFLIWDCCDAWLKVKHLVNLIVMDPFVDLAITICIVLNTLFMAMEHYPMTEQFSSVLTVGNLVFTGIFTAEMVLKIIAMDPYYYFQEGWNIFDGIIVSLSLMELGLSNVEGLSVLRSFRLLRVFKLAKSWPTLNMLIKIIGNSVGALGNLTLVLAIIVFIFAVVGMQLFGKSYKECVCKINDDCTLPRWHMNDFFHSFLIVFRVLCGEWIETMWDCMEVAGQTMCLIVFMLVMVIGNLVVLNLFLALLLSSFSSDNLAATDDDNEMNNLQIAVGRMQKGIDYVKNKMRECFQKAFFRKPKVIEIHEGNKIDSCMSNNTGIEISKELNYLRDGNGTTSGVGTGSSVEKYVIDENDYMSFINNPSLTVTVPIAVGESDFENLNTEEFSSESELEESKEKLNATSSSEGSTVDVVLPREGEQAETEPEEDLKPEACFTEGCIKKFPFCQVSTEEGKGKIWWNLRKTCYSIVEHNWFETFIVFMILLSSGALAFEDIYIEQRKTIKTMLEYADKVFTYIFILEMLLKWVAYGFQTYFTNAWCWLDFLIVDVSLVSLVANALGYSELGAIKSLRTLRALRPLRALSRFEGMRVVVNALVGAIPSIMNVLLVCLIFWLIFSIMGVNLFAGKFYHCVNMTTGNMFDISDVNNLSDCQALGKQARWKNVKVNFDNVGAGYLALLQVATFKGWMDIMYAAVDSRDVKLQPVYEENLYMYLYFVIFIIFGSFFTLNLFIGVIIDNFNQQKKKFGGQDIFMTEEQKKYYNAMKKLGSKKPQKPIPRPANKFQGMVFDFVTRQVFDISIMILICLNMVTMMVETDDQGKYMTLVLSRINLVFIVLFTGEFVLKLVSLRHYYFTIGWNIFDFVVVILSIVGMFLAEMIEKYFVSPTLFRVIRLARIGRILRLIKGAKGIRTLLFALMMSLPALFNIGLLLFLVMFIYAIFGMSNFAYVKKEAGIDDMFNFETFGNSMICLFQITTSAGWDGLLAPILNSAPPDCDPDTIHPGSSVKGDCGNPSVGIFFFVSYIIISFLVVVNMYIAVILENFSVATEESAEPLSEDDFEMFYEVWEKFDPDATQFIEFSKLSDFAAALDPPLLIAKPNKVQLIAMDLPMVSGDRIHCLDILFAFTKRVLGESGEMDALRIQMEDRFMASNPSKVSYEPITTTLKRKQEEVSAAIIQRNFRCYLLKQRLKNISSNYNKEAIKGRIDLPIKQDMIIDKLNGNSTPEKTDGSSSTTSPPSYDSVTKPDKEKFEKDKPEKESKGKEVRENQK

Sequence of hNav1.7 (Q15858 whole entry, looked up): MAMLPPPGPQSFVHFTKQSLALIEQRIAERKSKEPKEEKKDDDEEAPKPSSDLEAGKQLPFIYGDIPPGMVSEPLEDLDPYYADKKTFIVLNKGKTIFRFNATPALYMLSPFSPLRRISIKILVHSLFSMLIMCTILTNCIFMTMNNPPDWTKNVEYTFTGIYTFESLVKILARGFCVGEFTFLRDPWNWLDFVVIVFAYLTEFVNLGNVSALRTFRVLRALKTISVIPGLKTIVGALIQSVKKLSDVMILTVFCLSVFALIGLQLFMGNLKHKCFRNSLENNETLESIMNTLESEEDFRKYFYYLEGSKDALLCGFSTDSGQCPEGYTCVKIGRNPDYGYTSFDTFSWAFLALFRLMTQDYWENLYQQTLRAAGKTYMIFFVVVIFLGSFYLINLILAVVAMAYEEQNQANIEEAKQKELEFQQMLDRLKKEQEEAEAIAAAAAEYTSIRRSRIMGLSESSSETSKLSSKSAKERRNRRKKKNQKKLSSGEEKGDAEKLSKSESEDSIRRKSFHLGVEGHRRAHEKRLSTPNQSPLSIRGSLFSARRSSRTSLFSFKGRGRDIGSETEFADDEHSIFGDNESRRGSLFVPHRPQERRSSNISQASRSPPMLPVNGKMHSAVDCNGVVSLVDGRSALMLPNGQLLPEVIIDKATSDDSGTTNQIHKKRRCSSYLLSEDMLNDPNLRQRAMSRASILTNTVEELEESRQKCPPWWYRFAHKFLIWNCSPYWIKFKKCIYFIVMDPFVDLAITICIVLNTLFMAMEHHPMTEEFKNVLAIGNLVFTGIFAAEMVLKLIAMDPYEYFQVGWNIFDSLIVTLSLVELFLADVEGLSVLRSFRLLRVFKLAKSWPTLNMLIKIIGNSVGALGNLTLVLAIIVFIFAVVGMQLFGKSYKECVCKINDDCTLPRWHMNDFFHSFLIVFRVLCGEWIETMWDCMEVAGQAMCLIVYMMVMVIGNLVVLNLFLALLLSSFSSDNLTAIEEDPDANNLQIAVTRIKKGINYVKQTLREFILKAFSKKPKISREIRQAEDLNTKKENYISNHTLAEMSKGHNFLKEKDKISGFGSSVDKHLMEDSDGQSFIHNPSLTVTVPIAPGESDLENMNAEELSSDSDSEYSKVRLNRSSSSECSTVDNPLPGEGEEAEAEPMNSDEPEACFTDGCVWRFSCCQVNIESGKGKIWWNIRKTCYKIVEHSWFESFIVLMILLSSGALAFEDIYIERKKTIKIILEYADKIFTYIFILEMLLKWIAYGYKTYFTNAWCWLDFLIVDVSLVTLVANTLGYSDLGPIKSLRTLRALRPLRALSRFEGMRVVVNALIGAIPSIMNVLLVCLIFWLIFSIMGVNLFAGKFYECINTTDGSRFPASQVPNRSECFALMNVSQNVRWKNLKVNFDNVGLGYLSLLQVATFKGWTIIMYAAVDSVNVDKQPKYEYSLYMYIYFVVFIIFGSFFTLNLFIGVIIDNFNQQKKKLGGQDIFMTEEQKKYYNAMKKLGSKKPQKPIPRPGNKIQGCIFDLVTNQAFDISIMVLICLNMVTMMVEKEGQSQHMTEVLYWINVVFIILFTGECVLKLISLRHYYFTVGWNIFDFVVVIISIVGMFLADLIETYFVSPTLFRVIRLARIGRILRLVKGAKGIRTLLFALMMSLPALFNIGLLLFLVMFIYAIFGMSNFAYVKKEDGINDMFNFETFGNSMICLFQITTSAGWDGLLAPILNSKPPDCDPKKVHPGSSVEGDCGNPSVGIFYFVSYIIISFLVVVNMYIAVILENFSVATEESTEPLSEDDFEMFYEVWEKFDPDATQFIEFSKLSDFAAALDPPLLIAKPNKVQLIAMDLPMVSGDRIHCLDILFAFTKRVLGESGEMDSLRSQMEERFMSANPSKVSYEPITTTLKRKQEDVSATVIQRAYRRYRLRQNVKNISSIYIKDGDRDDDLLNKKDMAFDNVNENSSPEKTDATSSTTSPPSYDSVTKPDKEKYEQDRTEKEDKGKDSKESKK

For `CC[C@H](C)[C@@H]1NC(=O)[C@@H]2CSSC[C@@H]3NC(=O)[C@H](C(C)C)NC(=O)[C@H](CC(C)C)NC(=O)[C@H](CC(N)=O)NC(=O)[C@@H]4CCCN4C(=O)[C@H](CCCNC(=N)N)NC(=O)[C@H](CSSC[C@H](NC(=O)[C@@H](N)CC(=O)O)C(=O)N[C@@H](CC(C)C)C(=O)NCC(=O)N[C@@H](Cc4ccccc4)C(=O)N[C@@H](CCSC)C(=O)N[C@@H](CCCNC(=N)N)C(=O)N[C@@H](CCCCN)C(=O)N2)NC(=O)[C@H](CSSC[C@@H](C(=O)N[C@@H](CCCCN)C(=O)N[C@@H](Cc2cn(C)c4ccccc24)C(=O)N[C@H](C(=O)N[C@@H](Cc2ccccc2)C(N)=O)C(C)C)NC(=O)[C@H](Cc2c[nH]c4ccccc24)NC(=O)[C@H](CCCCN)NC(=O)[C@H](Cc2c[nH]cn2)NC(=O)[C@H]([C@@H](C)O)NC(=O)[C@H](CCCNC(=N)N)NC(=O)[C@H](CO)NC3=O)NC(=O)[C@H](CCCCN)NC(=O)[C@H](CC(=O)O)NC(=O)[C@H](CC(N)=O)NC(=O)[C@H](CC(=O)O)NC(=O)[C@@H]2CCCN2C1=O` [[1′NMeW32]GpTx-1(1-34)] (H-DCLGFMRKCIPDNDKCCRPNLVCSRTHKWCK[Trp(1-Me)]VF-NH2; disulfide 2-17, 9-23, 16-30), the IC50 (as a rule, the concentration at which inhibition is half-maximal) was found to be 0.006 µM in test [1], 6.85 µM in test [2] and 0.018 µM in test [3].

With `CC[C@H](C)[C@@H]1NC(=O)[C@@H]2CSSC[C@@H]3NC(=O)[C@H](C(C)C)NC(=O)[C@H](CC(C)C)NC(=O)[C@H](CC(N)=O)NC(=O)[C@@H]4CCCN4C(=O)[C@H](CCCNC(=N)N)NC(=O)[C@H](CSSC[C@H](NC(=O)[C@@H](N)CC(=O)O)C(=O)N[C@@H](CC(C)C)C(=O)NCC(=O)N[C@@H](C)C(=O)N[C@@H](Cc4cccc5ccccc45)C(=O)N[C@@H](CCCNC(=N)N)C(=O)N[C@@H](CCCCN)C(=O)N2)NC(=O)[C@H](CSSC[C@@H](C(=O)N[C@@H](CCCCN)C(=O)N[C@@H](Cc2ccc(O)cc2)C(=O)N[C@H](C(=O)N[C@@H](Cc2ccccc2)C(N)=O)C(C)C)NC(=O)[C@H](Cc2c[nH]c4ccccc24)NC(=O)[C@H](CCCCN)NC(=O)[C@H](Cc2cnc[nH]2)NC(=O)[C@H]([C@@H](C)O)NC(=O)[C@H](CCCNC(=N)N)NC(=O)[C@H](CO)NC3=O)NC(=O)[C@H](CCCCN)NC(=O)[C@H](CC(=O)O)NC(=O)[C@H](CC(N)=O)NC(=O)[C@H](CC(=O)O)NC(=O)[C@@H]2CCCN2C1=O` [[Ala5;1-Nal6]GpTx-1(1-34)], the IC50 in test [1] was found to be 0.002 µM; in test [2], 3.81 µM; in test [3], 0.008 µM.

On to `CC[C@H](C)[C@@H]1NC(=O)[C@@H]2CSSC[C@@H]3NC(=O)[C@H](C(C)C)NC(=O)[C@H](CC(C)C)NC(=O)[C@H](CC(N)=O)NC(=O)[C@@H]4CCCN4C(=O)[C@H](CCCNC(=N)N)NC(=O)[C@H](CSSC[C@H](NC(=O)[C@@H](N)CC(=O)O)C(=O)N[C@@H](CC(C)C)C(=O)NCC(=O)N[C@@H](Cc4ccccc4)C(=O)N[C@@H](CCSC)C(=O)N[C@@H](CCCNC(=N)N)C(=O)N[C@@H](CCCCN)C(=O)N2)NC(=O)[C@H](CSSC[C@@H](C(=O)N[C@@H](CCCCN)C(=O)N[C@@H](Cc2ccc(O)cc2)C(=O)N[C@H](C(=O)N[C@@H](Cc2ccccc2)C(N)=O)C(C)C)NC(=O)[C@H](Cc2c[nH]c4ccccc24)NC(=O)[C@H](CCCNC(=N)N)NC(=O)[C@H](Cc2c[nH]cn2)NC(=O)[C@H]([C@@H](C)O)NC(=O)[C@H](CCCNC(=N)N)NC(=O)[C@H](CO)NC3=O)NC(=O)[C@H](CCCCN)NC(=O)[C@H](CC(=O)O)NC(=O)[C@H](CC(N)=O)NC(=O)[C@H](CC(=O)O)NC(=O)[C@@H]2CCCN2C1=O` [[Arg28]GpTx-1(1-34)], for which the IC50 in test [1] was 0.007 µM; in test [2] (read-out: Nav1.5 Use IC50), 8.73 µM; in test [3], 0.012 µM.

As to `CC[C@H](C)[C@@H]1NC(=O)[C@@H]2CSSC[C@@H]3NC(=O)[C@H](C(C)C)NC(=O)[C@H](CC(C)C)NC(=O)[C@H](CC(N)=O)NC(=O)[C@@H]4CCCN4C(=O)[C@H](CCCNC(=N)N)NC(=O)[C@H](CSSC[C@H](NC(=O)[C@@H](N)CC(=O)O)C(=O)N[C@@H](CC(C)C)C(=O)NCC(=O)N[C@@H](Cc4ccccc4)C(=O)N[C@@H](CCSC)C(=O)N[C@@H](CCCNC(=N)N)C(=O)N[C@@H](CCCCN)C(=O)N2)NC(=O)[C@H](CSSC[C@@H](C(=O)N[C@@H](CCCCN)C(=O)N[C@@H](Cc2ccc(O)cc2)C(=O)N[C@H](C(=O)N[C@@H](Cc2ccccc2)C(N)=O)C(C)C)NC(=O)[C@H](Cc2c[nH]c4ccccc24)NC(=O)[C@H](CCCCN)NC(=O)[C@H](Cc2cnc[nH]2)NC(=O)[C@H](CC(C)C)NC(=O)[C@H](CCCNC(=N)N)NC(=O)[C@H](CO)NC3=O)NC(=O)[C@H](CCCCN)NC(=O)[C@H](CC(=O)O)NC(=O)[C@H](CC(N)=O)NC(=O)[C@H](CC(=O)O)NC(=O)[C@@H]2CCCN2C1=O` [[Leu26]GpTx-1(1-34)] (H-DCLGFMRKCIPDNDKCCRPNLVCSRLHKWCKYVF-NH2; disulfide 2-17, 9-23, 16-30), the IC50 worked out at 0.003 µM in test [1], 5.01 µM in test [2] and 0.023 µM in test [3].

Regarding `CC[C@H](C)[C@@H]1NC(=O)[C@@H]2CSSC[C@@H]3NC(=O)[C@H](C(C)C)NC(=O)[C@H](CC(C)C)NC(=O)[C@H](CC(N)=O)NC(=O)[C@@H]4CCCN4C(=O)[C@H](CCCNC(=N)N)NC(=O)[C@H](CSSC[C@H](NC(=O)[C@@H](N)CC(=O)O)C(=O)N[C@@H](CC(C)C)C(=O)NCC(=O)N[C@@H](C)C(=O)N[C@@H](CCSC)C(=O)N[C@@H](CCCNC(=N)N)C(=O)N[C@@H](CCCCN)C(=O)N2)NC(=O)[C@H](CSSC[C@@H](C(=O)N[C@@H](CCCCN)C(=O)N[C@@H](Cc2cccc4ccccc24)C(=O)N[C@H](C(=O)N[C@@H](Cc2ccccc2)C(N)=O)C(C)C)NC(=O)[C@H](Cc2c[nH]c4ccccc24)NC(=O)[C@H](CCCCN)NC(=O)[C@H](Cc2c[nH]cn2)NC(=O)[C@H]([C@@H](C)O)NC(=O)[C@H](CCCNC(=N)N)NC(=O)[C@H](CO)NC3=O)NC(=O)[C@H](CCCCN)NC(=O)[C@H](CC(=O)O)NC(=O)[C@H](CC(N)=O)NC(=O)[C@H](CC(=O)O)NC(=O)[C@@H]2CCCN2C1=O` [[Ala5;1-Nal32]GpTx-1(1-34)] (H-DCLGAMRKCIPDNDKCCRPNLVCSRTHKWCK[1Nal]VF-NH2; disulfide 2-17, 9-23, 16-30), the results for the IC50 in test [1], in test [2] and in test [3] were 0.028 µM, over 10 µM and 0.122 µM, respectively.

Take `CC[C@H](C)[C@@H]1NC(=O)[C@@H]2CSSC[C@@H]3NC(=O)[C@H](C(C)C)NC(=O)[C@H](CC(C)C)NC(=O)[C@H](CC(N)=O)NC(=O)[C@@H]4CCCN4C(=O)[C@H](Cc4c[nH]c5ccccc45)NC(=O)[C@H](CSSC[C@H](NC(=O)[C@@H](N)CC(=O)O)C(=O)N[C@@H](CC(C)C)C(=O)NCC(=O)N[C@@H](Cc4ccccc4)C(=O)N[C@@H](CCSC)C(=O)N[C@@H](CCCNC(=N)N)C(=O)N[C@@H](CCCCN)C(=O)N2)NC(=O)[C@H](CSSC[C@@H](C(=O)N[C@@H](CCCCN)C(=O)N[C@@H](Cc2ccc(O)cc2)C(=O)N[C@H](C(=O)N[C@@H](Cc2ccccc2)C(N)=O)C(C)C)NC(=O)[C@H](Cc2c[nH]c4ccccc24)NC(=O)[C@H](CCCCN)NC(=O)[C@H](Cc2c[nH]cn2)NC(=O)[C@H]([C@@H](C)O)NC(=O)[C@H](CCCNC(=N)N)NC(=O)[C@H](CO)NC3=O)NC(=O)[C@H](CCCCN)NC(=O)[C@H](CC(=O)O)NC(=O)[C@H](CC(N)=O)NC(=O)[C@H](CC(=O)O)NC(=O)[C@@H]2CCCN2C1=O` [[Trp18]GpTx-1(1-34)] (H-DCLGFMRKCIPDNDKCCWPNLVCSRTHKWCKYVF-NH2; disulfide 2-17, 9-23, 16-30): the values for the IC50 in test [1], in test [2] and in test [3] were 0.024 µM, over 10 µM and 0.042 µM, respectively.

In the case of `CC[C@H](C)[C@@H]1NC(=O)[C@@H]2CSSC[C@@H]3NC(=O)[C@H](C(C)C)NC(=O)[C@H](CC(C)C)NC(=O)[C@H](CC(N)=O)NC(=O)[C@@H]4CCCN4C(=O)[C@H](CCCNC(=N)N)NC(=O)[C@H](CSSC[C@H](NC(=O)[C@@H](N)CC(=O)O)C(=O)N[C@@H](CC(C)C)C(=O)NCC(=O)N[C@@H](Cc4ccccc4)C(=O)N[C@@H](CCSC)C(=O)N[C@@H](CCCNC(=N)N)C(=O)N[C@@H](CCCCN)C(=O)N2)NC(=O)[C@H](CSSC[C@@H](C(=O)N[C@@H](CCCCN)C(=O)N[C@@H](Cc2ccc(O)cc2)C(=O)N[C@H](C(=O)N[C@@H](Cc2ccccc2)C(N)=O)C(C)C)NC(=O)[C@H](Cc2c[nH]c4ccccc24)NC(=O)[C@H](CCCCN)NC(=O)[C@H](Cc2cnc[nH]2)NC(=O)[C@H](CCCNC(=N)N)NC(=O)[C@H](CCCNC(=N)N)NC(=O)[C@H](CO)NC3=O)NC(=O)[C@H](CCCCN)NC(=O)[C@H](CC(=O)O)NC(=O)[C@H](CC(N)=O)NC(=O)[C@H](CC(=O)O)NC(=O)[C@@H]2CCCN2C1=O` [[Arg26]GpTx-1(1-34)] (H-DCLGFMRKCIPDNDKCCRPNLVCSRRHKWCKYVF-NH2; disulfide 2-17, 9-23, 16-30), the half-maximal inhibitory concentration (IC50) worked out at 0.573 µM in test [2] and 0.01 µM in test [3].

With `CC[C@H](C)[C@@H]1NC(=O)[C@@H]2CSSC[C@@H]3NC(=O)[C@H](C(C)C)NC(=O)[C@H](CC(C)C)NC(=O)[C@H](CC(N)=O)NC(=O)[C@@H]4CCCN4C(=O)[C@H](CCCNC(=N)N)NC(=O)[C@H](CSSC[C@H](NC(=O)[C@@H](N)CC(=O)O)C(=O)N[C@@H](CC(C)C)C(=O)NCC(=O)N[C@@H](Cc4ccccc4)C(=O)N[C@@H](CCSC)C(=O)N[C@@H](CCCNC(=N)N)C(=O)N[C@@H](CCCCN)C(=O)N2)NC(=O)[C@H](CSSC[C@@H](C(=O)N[C@@H](CCCCN)C(=O)N[C@@H](Cc2cccc4ccccc24)C(=O)N[C@H](C(=O)N[C@@H](Cc2ccccc2)C(N)=O)C(C)C)NC(=O)[C@H](Cc2c[nH]c4ccccc24)NC(=O)[C@H](CCCCN)NC(=O)[C@H](Cc2cnc[nH]2)NC(=O)[C@H]([C@@H](C)O)NC(=O)[C@H](CCCNC(=N)N)NC(=O)[C@H](CO)NC3=O)NC(=O)[C@H](CCCCN)NC(=O)[C@H](CC(=O)O)NC(=O)[C@H](CC(N)=O)NC(=O)[C@H](CC(=O)O)NC(=O)[C@@H]2CCCN2C1=O` [[1-Nal32]GpTx-1(1-34)] (H-DCLGFMRKCIPDNDKCCRPNLVCSRTHKWCK[1Nal]VF-NH2; disulfide 2-17, 9-23, 16-30), the IC50 in test [2] was 0.988 µM; in test [3] it was 0.012 µM.

The record behind these values is patent US9340590B2 (priority 2011, dated 2016).
